Experimental data taken from ChEMBL document CHEMBL4004891, “Antioxidant Properties of Novel Dimers Derived from Natural β-Elemene through Inhibiting H2O2-Induced Apoptosis” (ACS Med Chem Lett, 2017).
Calls of active or inactive are those of the source. The rule behind the calls is not given here.

system: HUVEC; experiment: Cytoprotective activity against H2O2-induced cell injury in HUVEC assessed as increase in cell viability at 10 uM pretreated for 24 hrs followed by H2O2-stimulation after 2 hrs by MTT assay; assay type: functional, cell-based; conditions: Homo sapiens

Structure (SMILES) | Activity
C=C[C@]1(C)CC[C@@H](C(=C)COC(=O)C(=O)OCC(=C)[C@@H]2CC[C@@](C)(C=C)[C@H](C(=C)C)C2)C[C@H]1C(=C)C | Active
C=C[C@]1(C)CC[C@@H](C(=C)COC(=O)CCC(=O)N2CCN(C(=O)CCC(=O)OCC(=C)[C@@H]3CC[C@@](C)(C=C)[C@H](C(=C)C)C3)CC2)C[C@H]1C(=C)C | Active
C=C[C@]1(C)CC[C@@H](C(=C)COC(=O)[C@@H]2[C@H](C(=O)OCC(=C)[C@@H]3CC[C@@](C)(C=C)[C@H](C(=C)C)C3)[C@@H]3C=C[C@H]2C3)C[C@H]1C(=C)C | Active
C=C[C@]1(C)CC[C@@H](C(=C)COCCCCOCC(=C)[C@@H]2CC[C@@](C)(C=C)[C@H](C(=C)C)C2)C[C@H]1C(=C)C | Active
C=C[C@]1(C)CC[C@@H](C(=C)COC(=O)c2ccc(C(=O)OCC(=C)[C@@H]3CC[C@@](C)(C=C)[C@H](C(=C)C)C3)cc2)C[C@H]1C(=C)C | Active
C=C[C@]1(C)CC[C@@H](C(=C)COC(=O)CCN2CCN(CCC(=O)OCC(=C)[C@@H]3CC[C@@](C)(C=C)[C@H](C(=C)C)C3)CC2)C[C@H]1C(=C)C | Active
C=C[C@]1(C)CC[C@@H](C(=C)COC(=O)c2cn(CCCCn3cc(C(=O)OCC(=C)[C@@H]4CC[C@@](C)(C=C)[C@H](C(=C)C)C4)nn3)nn2)C[C@H]1C(=C)C | Active
C=C[C@]1(C)CC[C@@H](C(=C)COC(=O)CCN(C)CCN(C)CCC(=O)OCC(=C)[C@@H]2CC[C@@](C)(C=C)[C@H](C(=C)C)C2)C[C@H]1C(=C)C | Active
C=C[C@]1(C)CC[C@@H](C(=C)COC(=O)CC(=O)OCC(=C)[C@@H]2CC[C@@](C)(C=C)[C@H](C(=C)C)C2)C[C@H]1C(=C)C | Active
C=C[C@]1(C)CC[C@@H](C(=C)COC(=O)COCC(=O)OCC(=C)[C@@H]2CC[C@@](C)(C=C)[C@H](C(=C)C)C2)C[C@H]1C(=C)C | Active
C=C[C@]1(C)CC[C@@H](C(=C)COC(=O)CC[C@H](N)C(=O)OCC(=C)[C@@H]2CC[C@@](C)(C=C)[C@H](C(=C)C)C2)C[C@H]1C(=C)C | Active
C=C[C@]1(C)CC[C@@H](C(=C)COC(=O)C[C@H](N)C(=O)OCC(=C)[C@@H]2CC[C@@](C)(C=C)[C@H](C(=C)C)C2)C[C@H]1C(=C)C | Active
C=C[C@]1(C)CC[C@@H](C(=C)COC(=O)CCCCCn2cc(C(=O)OCC(=C)[C@@H]3CC[C@@](C)(C=C)[C@H](C(=C)C)C3)nn2)C[C@H]1C(=C)C | Active
C=C[C@]1(C)CC[C@@H](C(=C)CN2CCN(CC(=C)[C@@H]3CC[C@@](C)(C=C)[C@H](C(=C)C)C3)CC2)C[C@H]1C(=C)C | Active
C=C[C@]1(C)CC[C@@H](C(=C)COC(=O)CCCCn2cc(C(=O)OCC(=C)[C@@H]3CC[C@@](C)(C=C)[C@H](C(=C)C)C3)nn2)C[C@H]1C(=C)C | Active
C=C[C@]1(C)CC[C@@H](C(=C)COC(=O)CCCN(C)CCN(C)CCCC(=O)OCC(=C)[C@@H]2CC[C@@](C)(C=C)[C@H](C(=C)C)C2)C[C@H]1C(=C)C | Active
C=C[C@]1(C)CC[C@@H](C(=C)COC(=O)CCCn2cc(C(=O)OCC(=C)[C@@H]3CC[C@@](C)(C=C)[C@H](C(=C)C)C3)nn2)C[C@H]1C(=C)C | Active
C=C[C@]1(C)CC[C@@H](C(=C)COCc2cn(CCCCC(=O)OCC(=C)[C@@H]3CC[C@@](C)(C=C)[C@H](C(=C)C)C3)nn2)C[C@H]1C(=C)C | Active
C=C[C@]1(C)CC[C@@H](C(=C)COCc2cn(CCCC(=O)OCC(=C)[C@@H]3CC[C@@](C)(C=C)[C@H](C(=C)C)C3)nn2)C[C@H]1C(=C)C | Active
C=C[C@]1(C)CC[C@@H](C(=C)CN(C)CCN(C)CC(=C)[C@@H]2CC[C@@](C)(C=C)[C@H](C(=C)C)C2)C[C@H]1C(=C)C | Active
C=C[C@]1(C)CC[C@@H](C(=C)COC(=O)CCCC(=O)OCC(=C)[C@@H]2CC[C@@](C)(C=C)[C@H](C(=C)C)C2)C[C@H]1C(=C)C | Active
